The text below walks through data of paper PMC6175062, “Gaining Mechanistic Insight Into Coproporphyrin I as Endogenous Biomarker for OATP1B‐Mediated Drug–Drug Interactions Using Population Pharmacokinetic Modeling and Simulation” (Clinical Pharmacology and Therapeutics, 2018).

SMILES strings stand for the structures. Like-named read-outs stand apart in the source and are kept apart here.

One may read the Ki as the equilibrium dissociation constant of an inhibitor or competing ligand from its target.

The target in one data set is OATP. More on the design: method as in PMID 27170342. To be noted: cited from earlier work.
Data set [1] can be described thus: Population PK model of rifampicin plasma data, healthy subjects. The data set is classed as in vivo, human. The note with it: single 600-mg oral dose. Here is the method:
Individual plasma and urine data were obtained from a previous study in 12 healthy male subjects.6 The study was split into three occasions (OCC1–3) with a 7‐day washout period between OCC1 and 2 and OCC2 and 3. During each occasion, baseline CPI urine and plasma samples were collected (Figure S2). A single 600‐mg oral dose of RIF and a single 5‐mg oral dose of RSV were administered to the volunteers in OCC1 and OCC2, respectively. Finally, in OCC3 the same respective doses of RIF and RSV were coadministered to healthy volunteers. Plasma (RIF, RSV, and CPI) were collected at predefined timepoints over the 24‐h period following administration of RIF and/or RSV. Urine samples were collected over one time interval (−7 to 0 h) for the pretreatment sample (CPI monitored) and two subsequent intervals (0–7 h and 7–24 h) for posttreatment samples of CPI and RSV. The total number of plasma samples for modeling purposes were 276 (OCC1 = 144, OCC3 = 132), 420 (OCC1 = 144, OCC2 = 144, OCC3 = 132), and 264 (OCC2 = 132, OCC3 = 132) for RIF, CPI, and RSV, respectively, whereas the total number of urine samples were 102 (pretreatment = 34, posttreatment = 68) and 44 for CPI and RSV, respectively. No subjects enrolled in the clinical study had OATP1B1*5 or OATP1B1*15 mutations, associated with altered OATP1B1 activity.
Population PK models were developed sequentially for analysis of RIF, CPI, and RSV plasma and urine data using nonlinear mixed‐effects modeling software, NONMEM, with first‐order conditional estimation method.32 Statistical analysis, GOF plots, and other graphical analysis were conducted in MATLAB. The structural models for RIF and RSV (Supplementary Material) were selected based on population PK models available in the literature.34, 35 An exponential model was used to describe interindividual variability random‐effects parameters and IOV was evaluated for the model parameters; occasions were defined as periods of different visits following recruitment or washout periods. Covariates and random‐effects parameters (IIV and IOV) were retained in the models when there was a significant change in objective function and improvement in GOF plots. The incorporation of IIV and IOV in the models is shown in Equation 2: (2) θik=θ⋅e^ηi+κik where θ ik is the parameter for i^th individual on k^th occasion, θ is the population (typical individual) parameter, η i is the parameter that describes the deviation of the i^th individual parameter from the population (IIV), and k ik the parameter that describes the deviation of the i^th individual from the population in addition to η ik at the k^th occasion (IOV). Both random effect parameters (η ik and k ik) are assumed to be randomly distributed with a mean of zero and the variances are estimated during analysis. Proportional or additive or combination of proportional and additive residual error models were investigated for the residuals.
Based on a previously developed population PK model for RIF, a one compartment first order elimination model with transit absorption model was used to describe plasma concentrations of RIF (12). This model was parameterised using clearance (CL), volume of distribution (V), absorption rate constant (ka), mean transit time (MTT) and number of transit compartments (n). In order to account for the interaction between RIF and CPI and RIF and RSV, sequential analysis of plasma and urine data was conducted. […]

Take `CO[C@H]1/C=C/O[C@@]2(C)Oc3c(C)c(O)c4c(O)c(c(/C=N/N5CCN(C)CC5)c(O)c4c3C2=O)NC(=O)/C(C)=C\C=C\[C@H](C)[C@H](O)[C@@H](C)[C@@H](O)[C@@H](C)[C@H](OC(C)=O)[C@@H]1C` [rifampicin]: the Ki on OATP (read-out: in vivo Ki estimated from pitavastatin clinical data) is 230 nM. At OATP (read-out: in vivo Ki estimated from pravastatin clinical data), the Ki is 190 nM. Besides, in data set [1], the “CL, population estimate” value is 3.97 L/h; the “MTT (mean transit time), population estimate” value was 0.74 h; the “V, population estimate” value is recorded as 24.7 L; the “n (number of transit compartments), population estimate” value was 8.63. Moreover, in data set [1] (12 healthy males), the “ka, population estimate” value was 2.09 h⁻¹.
